#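 Dose response: 5 concentrations. Exposure: 48 h. Format: 96-well plates. Endpoint: linear interpolation; highest concentration if not reached. GI50 = concentration required for 50% inhibition of growth.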 Activity calls are given as the source filed them. Rule as the data show it: active = GI50 up to about 1.1 µM and inactive = higher.
# Legend:
# Assay in all cases: NCI-60 cell line screen, 48 h
# [1] = system: M14
# [2] = system: NCI-H460
# [3] = system: A498
# [4] = system: DMS-114
# [5] = system: HOP-62
# [6] = system: SW-620
# [7] = system: A549
# [8] = system: UACC-62
# [9] = system: HCT-15
# [10] = system: KM12
# [11] = system: OVCAR-8
# [12] = system: SF-268
# [13] = system: SK-MEL-2
# [14] = system: K562
# [15] = system: HCT-116
# [16] = system: RXF 393
# [17] = system: Hs-578T
# [18] = system: NCI/ADR-RES
# [19] = system: MCF7
# [20] = system: MDA-N
SMILES,GI50 [1],GI50 [2],GI50 [3],GI50 [4],GI50 [5],GI50 [6],GI50 [7],GI50 [8],GI50 [9],GI50 [10],GI50 [11],GI50 [12],GI50 [13],GI50 [14],GI50 [15],GI50 [16],GI50 [17],GI50 [18],GI50 [19],GI50 [20]
COc1ccc(/C=C2\Cc3ccccc3C2=O)cc1OC,> 100 µM (inactive),> 100 µM (inactive),> 100 µM (inactive),48.6 µM (inactive),> 100 µM (inactive),> 100 µM (inactive),> 100 µM (inactive),> 100 µM (inactive),> 100 µM,> 100 µM (inactive),> 100 µM (inactive),45.3 µM (inactive),> 100 µM (inactive),> 100 µM (inactive),–,–,–,–,–,–
COC(=O)C(Cc1nc2ccccc2nc1O)/C(=N\NC(C)(C)C)C(=O)Nc1c(C)cc(Br)cc1C (stereo not given),21.8 µM (inactive),30.1 µM (inactive),12.7 µM (inactive),24.7 µM (inactive),35 µM (inactive),35.2 µM (inactive),50.9 µM (inactive),19 µM (inactive),23.4 µM,41 µM (inactive),21.9 µM (inactive),22.3 µM (inactive),31 µM (inactive),29.4 µM (inactive),18.6 µM (inactive),–,–,–,–,–
CC(C)=CCC/C(C)=C/CC/C(C)=C/CCC1(C)CCC([C@H](C)C(=O)O)OO1.CC1=C(CC/C(C)=C/CCC2(C)CCC([C@H](C)C(=O)O)OO2)C(C)(C)CCC1 (stereo not given in full),> 100 µM (inactive),> 100 µM (inactive),–,> 100 µM (inactive),> 100 µM (inactive),> 100 µM (inactive),> 100 µM (inactive),–,–,> 100 µM (inactive),> 100 µM (inactive),> 100 µM (inactive),> 100 µM (inactive),–,> 100 µM (inactive),> 100 µM (inactive),–,–,–,–
CC(C)(Br)C(=O)N1CCN(C(c2ccccc2)c2ccccc2)CC1,> 100 µM (inactive),> 100 µM (inactive),> 100 µM (inactive),–,43.5 µM (inactive),> 100 µM (inactive),> 100 µM (inactive),> 100 µM (inactive),64.9 µM,16.2 µM (inactive),> 100 µM (inactive),64 µM (inactive),> 100 µM (inactive),> 100 µM (inactive),32.2 µM (inactive),31.3 µM (inactive),22.6 µM (inactive),> 100 µM (inactive),24.3 µM (inactive),> 100 µM (inactive)
N#CCCSC(=S)C1CCCC1=N (stereo not given),> 100 µM (inactive),> 100 µM (inactive),> 100 µM (inactive),–,> 100 µM (inactive),> 100 µM (inactive),> 100 µM (inactive),> 100 µM (inactive),> 100 µM,> 100 µM (inactive),> 100 µM (inactive),> 100 µM (inactive),> 100 µM (inactive),> 100 µM (inactive),> 100 µM (inactive),42.4 µM (inactive),> 100 µM (inactive),> 100 µM (inactive),> 100 µM (inactive),> 100 µM (inactive)
CCC1=CCN(c2cc(C)ccn2)OC1c1ccccc1 (stereo not given),31.3 µM (inactive),38.4 µM (inactive),–,56.2 µM (inactive),> 100 µM (inactive),32.2 µM (inactive),40.1 µM (inactive),39.2 µM (inactive),21.8 µM,30.9 µM (inactive),53.1 µM (inactive),86.5 µM (inactive),21.4 µM (inactive),47.4 µM (inactive),30.8 µM (inactive),29.3 µM (inactive),–,–,–,–
CSc1nc(NC2OC(COC(C)=O)C(OC(C)=O)C(OC(C)=O)C2OC(C)=O)c2c(n1)OCC2=O (stereo not given),> 100 µM (inactive),> 100 µM (inactive),> 100 µM (inactive),> 100 µM (inactive),> 100 µM (inactive),> 100 µM (inactive),> 100 µM (inactive),> 100 µM (inactive),> 100 µM,> 100 µM (inactive),> 100 µM (inactive),> 100 µM (inactive),> 100 µM (inactive),> 100 µM (inactive),> 100 µM (inactive),–,–,–,–,–
CCNC(=O)OCc1c(COC(=O)NCC)c(-c2ccc(Cl)c(Cl)c2)n2c1CCC2,11.1 µM (inactive),4.61 µM (inactive),–,9.02 µM (inactive),7.33 µM (inactive),13.8 µM (inactive),18.5 µM (inactive),5.92 µM (inactive),13.6 µM,25.9 µM (inactive),12.6 µM (inactive),6.55 µM (inactive),13.1 µM (inactive),8.61 µM (inactive),9.4 µM (inactive),–,–,–,–,–
C=CCCOC(=O)CO[N+](=O)[O-],> 100 µM (inactive),> 100 µM (inactive),–,> 100 µM (inactive),> 100 µM (inactive),> 100 µM (inactive),> 100 µM (inactive),–,> 100 µM,> 100 µM (inactive),> 100 µM (inactive),> 100 µM (inactive),> 100 µM (inactive),> 100 µM (inactive),> 100 µM (inactive),> 100 µM (inactive),–,–,–,–
Cc1cc2c(=O)c3ccccc3[nH]c2c(C(N)=O)c1C,> 100 µM (inactive),> 100 µM (inactive),–,> 100 µM (inactive),–,> 100 µM (inactive),> 100 µM (inactive),> 100 µM (inactive),> 100 µM,> 100 µM (inactive),> 100 µM (inactive),> 100 µM (inactive),> 100 µM (inactive),> 100 µM (inactive),> 100 µM (inactive),> 100 µM (inactive),–,–,–,–
CSC1NC=Nc2c1sc(=S)n2-c1ccccc1 (stereo not given),> 100 µM (inactive),> 100 µM (inactive),> 100 µM (inactive),> 100 µM (inactive),24.2 µM (inactive),> 100 µM (inactive),> 100 µM (inactive),> 100 µM (inactive),> 100 µM,> 100 µM (inactive),> 100 µM (inactive),> 100 µM (inactive),> 100 µM (inactive),–,> 100 µM (inactive),> 100 µM (inactive),–,–,–,–
C=CC1[C@H]2COC(C)(C)O[C@@H]2CC(=O)C1(C)C (stereo not given in full),> 100 µM (inactive),> 100 µM (inactive),–,> 100 µM (inactive),> 100 µM (inactive),> 100 µM (inactive),> 100 µM (inactive),–,–,> 100 µM (inactive),> 100 µM (inactive),> 100 µM (inactive),> 100 µM (inactive),–,> 100 µM (inactive),94.8 µM (inactive),–,–,–,–
CC1CC2OC(=O)CC2C[C@@H]1O[Si](C)(C)C(C)(C)C (stereo not given in full),94.6 µM (inactive),75.7 µM (inactive),> 10 µM (inactive),28 µM (inactive),48.9 µM (inactive),> 100 µM (inactive),88.3 µM (inactive),68.7 µM (inactive),54.5 µM,44.3 µM (inactive),81.5 µM (inactive),64.4 µM (inactive),83.4 µM (inactive),36.1 µM (inactive),38.5 µM (inactive),–,–,–,–,–
C[C@@H]1C[C@H]2[C@@H]3CCC4=CC(=O)C=C[C@]4(C)[C@@]3(F)[C@@H](O)C[C@]2(C)[C@@]1(O)C(=O)CO [DEXAMETHASONE],> 100 µM (inactive),–,–,95.9 µM (inactive),> 100 µM (inactive),> 100 µM (inactive),> 100 µM (inactive),> 100 µM (inactive),> 100 µM,> 100 µM (inactive),> 100 µM (inactive),–,> 100 µM (inactive),> 100 µM (inactive),> 100 µM (inactive),–,–,–,–,–
